PMC6624297 (Cell Death & Disease, 2019)

What was measured:
[1] = molecular target: BRaf kinase (Homo sapiens, UniProt P15056); test: ADP-Glo kinase assay, BRaf; assay type: biochemical; settings: averages from triplicate assays
Description: (§1) The ADP-Glo™ kinase assay (Promega, Madison, WI) was used to screen target compounds for their inhibition effects for BRaf, EGFR kinase. The kinase assay was carried out in a 96-well plate, in a volume of 25 μL HEPES (pH 7.3) solvent containing 1.6 μg/mL EGF, and 20 ng of EGFR kinase, or 50 ng BRaf kinase, and 10 μM ATP (Promega, Madison, WI). […] Reactions in each well were started immediately by adding ATP and kept going for half an hour under 30 °C in a constant temperature incubator (Bluepard, Shanghai, China). After the plate cooled for 5 min at room temperature, 25 μl of ADP-Glo reagent was added into each well to stop the reaction and consume the remaining […] within 40 min. At the end, 50 μl of kinase detection reagent was added into the well and incubated for 1 h to produce a luminescence signal.

[2] = tested on: HepG2 cells; test: MTT assay HepG2; assay type: cell-based; settings: Homo sapiens, 24h of treatment, mean ± SD
Description: (§2) Details are given in Supplementary Materials and Methods. Using probability unit and weighted regression method to calculate the IC50 value of compounds.
(§3) Total cells in the logarithmic growth phase were collected, digested using 0.25% pancreatic enzymes, and then diluted into single-cell suspensions using phosphate-buffered solution (PBS). These cells were seeded into 96-well plates at 4× 10^3-5× 10^3 cells per well (100 µL per well) and then A549, H460, OVCAR-3, SGC7901, MDA-MB-231, HCT116 and HepG2 were cultured at 37°Cin an incubator containing 5% CO2. After cell complete attachment, 100 µL of different concentrations of compounds (0.625 μM, 1.25 μM, 2.5μM, 5 μM, 10 μM) were added to the cells after the nutrient solution in each well was discarded, while no compound except 0.1% DMSO was added to cells in the control group; at the same time, each concentration was set up to 5 wells. In addition, 5 wells in each 96-well plate only received 100 µL of nutrient solution as a blank control. The plates were taken out after the cells were incubated with compounds for 24 h, and 20 µL of MTT solution (5 mg/mL) (Wuhan Boster Biotechnology Limited Company, Wuhan, China; item No. AR1156) was added into all the wells. After another time of incubation for 4 h at 37 °C, the nutrient solution in each well was discarded slowly, and 150 µL of DMSO was added to each well. The plates were shaken on a shaking table for 20 min. When the crystals were fully dissolved, the blank wells were used to zero the plate reader. The optical density (OD) of each well was detected at 490 nm. The IC50 value was determined as the concentration of the inhibitor that caused 50% inhibition. Using probability unit and weighted regression method to calculate the IC50 value of compounds.

[3] = molecular target: T1, human TS (hTS) (Homo sapiens, UniProt P04818); test: Thymidylate synthase (TS) spectrophotometric assay; assay type: biochemical; settings: averages from triplicate assays
T1 construct: purchased ProSpec-Tany
T1 sequence (P04818 whole entry): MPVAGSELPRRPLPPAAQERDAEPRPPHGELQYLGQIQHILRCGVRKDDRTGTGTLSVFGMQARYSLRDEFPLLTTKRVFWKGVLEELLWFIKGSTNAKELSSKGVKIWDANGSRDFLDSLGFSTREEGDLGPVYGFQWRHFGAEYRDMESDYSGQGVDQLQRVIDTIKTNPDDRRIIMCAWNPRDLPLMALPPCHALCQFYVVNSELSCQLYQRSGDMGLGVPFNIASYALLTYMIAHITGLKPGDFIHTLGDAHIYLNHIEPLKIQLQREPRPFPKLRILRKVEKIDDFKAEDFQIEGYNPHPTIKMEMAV
Description: Recombinant human thymidylate synthase purchased from ProSpec-Tany Company. TS was assayed spectrophotometrically at 30 °C and pH 7.4 in a mixture containing 0.1 M 2-mercaptoethanol, 0.0003 M (6R,S)-tetrahydrofolate, 0.012 M formaldehyde, 0.02 M MgCl2, 0.001 M dUMP, 0.04 M Tris–HCl, 30 nM hTS, and 0.00075 M NaEDTA. […] The reaction was initiated by the addition of an amount of enzyme yielding a change in absorbance at 340 nm of 0.016/min in the absence of inhibitor.

[4] = tested on: MDA-MB-231 cells; test: MTT assay MDA-MB-231; assay type: cell-based; settings: Homo sapiens, 24h of treatment, mean ± SD
Description: as §2, §3

[5] = molecular target: EGFR kinase (Homo sapiens, UniProt P00533); test: ADP-Glo kinase assay, EGFR; assay type: biochemical; settings: averages from triplicate assays
Chain of EGFR kinase (P00533 25-1210): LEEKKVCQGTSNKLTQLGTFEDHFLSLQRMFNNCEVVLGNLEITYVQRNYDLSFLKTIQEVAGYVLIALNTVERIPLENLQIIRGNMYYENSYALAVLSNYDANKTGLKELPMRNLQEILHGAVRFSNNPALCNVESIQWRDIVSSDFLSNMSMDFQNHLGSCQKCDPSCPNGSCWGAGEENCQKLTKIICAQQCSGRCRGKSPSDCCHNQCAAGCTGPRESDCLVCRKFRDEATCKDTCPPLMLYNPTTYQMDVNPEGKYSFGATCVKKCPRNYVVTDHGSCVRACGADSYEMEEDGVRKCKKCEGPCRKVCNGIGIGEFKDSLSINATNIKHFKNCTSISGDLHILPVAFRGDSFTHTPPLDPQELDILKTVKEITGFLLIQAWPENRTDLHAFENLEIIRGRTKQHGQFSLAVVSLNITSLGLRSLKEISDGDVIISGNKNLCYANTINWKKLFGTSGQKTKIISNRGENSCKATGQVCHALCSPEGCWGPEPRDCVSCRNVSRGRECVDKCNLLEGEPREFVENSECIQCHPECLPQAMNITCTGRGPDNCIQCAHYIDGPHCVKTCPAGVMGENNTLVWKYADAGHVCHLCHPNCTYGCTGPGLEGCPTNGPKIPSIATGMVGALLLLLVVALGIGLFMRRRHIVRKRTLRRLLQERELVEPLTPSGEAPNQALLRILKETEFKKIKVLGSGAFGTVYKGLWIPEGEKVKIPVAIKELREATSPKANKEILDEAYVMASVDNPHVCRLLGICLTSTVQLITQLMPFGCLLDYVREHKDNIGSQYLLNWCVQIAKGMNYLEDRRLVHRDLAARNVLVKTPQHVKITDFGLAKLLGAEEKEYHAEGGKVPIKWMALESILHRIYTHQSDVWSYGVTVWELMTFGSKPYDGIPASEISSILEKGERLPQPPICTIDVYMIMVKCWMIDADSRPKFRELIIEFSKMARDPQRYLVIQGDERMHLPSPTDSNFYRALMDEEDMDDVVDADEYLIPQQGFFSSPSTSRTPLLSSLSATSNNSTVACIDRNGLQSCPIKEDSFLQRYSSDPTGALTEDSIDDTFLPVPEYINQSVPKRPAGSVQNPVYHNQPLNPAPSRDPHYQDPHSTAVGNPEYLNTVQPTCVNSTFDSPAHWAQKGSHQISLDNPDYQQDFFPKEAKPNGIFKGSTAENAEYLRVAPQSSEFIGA
Description: as §1

[6] = tested on: A549 cells; test: MTT assay A549; assay type: cell-based, human; settings: Homo sapiens, A549, 24h of treatment, mean ± SD
Description: as §2, §3

[7] = tested on: HCT-116 cells; test: MTT assay HCT-116; assay type: cell-based; settings: Homo sapiens, 24h of treatment, mean ± SD
Description: as §2, §3

[8] = tested on: OVCAR-3 cells; test: MTT assay OVCAR-3; assay type: cell-based; settings: Homo sapiens, 24h of treatment, mean ± SD
Description: as §2, §3

[9] = tested on: SGC7901 cells; test: MTT assay SGC7901; assay type: cell-based; settings: Homo sapiens, SGC-7901, 24h of treatment, mean ± SD
Description: as §2, §3

Chain of BRaf kinase (P15056 whole entry): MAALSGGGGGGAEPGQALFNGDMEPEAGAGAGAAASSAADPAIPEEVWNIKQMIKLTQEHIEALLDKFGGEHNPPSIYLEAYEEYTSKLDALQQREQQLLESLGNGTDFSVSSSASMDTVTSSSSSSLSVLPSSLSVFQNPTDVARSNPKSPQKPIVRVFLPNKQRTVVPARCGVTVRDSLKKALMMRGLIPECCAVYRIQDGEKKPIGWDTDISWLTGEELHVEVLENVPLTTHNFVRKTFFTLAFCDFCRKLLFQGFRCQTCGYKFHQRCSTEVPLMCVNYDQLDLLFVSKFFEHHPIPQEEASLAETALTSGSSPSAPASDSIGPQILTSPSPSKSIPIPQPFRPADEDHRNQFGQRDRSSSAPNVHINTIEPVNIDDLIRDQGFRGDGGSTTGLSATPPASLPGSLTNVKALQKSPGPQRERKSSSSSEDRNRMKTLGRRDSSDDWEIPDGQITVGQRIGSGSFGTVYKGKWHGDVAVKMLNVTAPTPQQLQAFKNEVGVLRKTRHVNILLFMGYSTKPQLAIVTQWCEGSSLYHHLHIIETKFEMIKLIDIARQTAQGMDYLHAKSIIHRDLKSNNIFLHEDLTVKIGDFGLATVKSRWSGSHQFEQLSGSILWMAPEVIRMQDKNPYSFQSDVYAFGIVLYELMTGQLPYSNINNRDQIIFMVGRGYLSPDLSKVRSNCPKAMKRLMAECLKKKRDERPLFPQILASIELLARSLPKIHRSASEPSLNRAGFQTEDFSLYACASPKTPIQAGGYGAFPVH

SMILES | IC50 [1] | IC50 [2] | IC50 [3] | melting point | IC50 [4] | IC50 [5] | IC50 [6] | IC50 [7] | IC50 [8] | IC50 [9]
O=C(Nc1ccc(NS(=O)(=O)c2c[nH]c(=O)[nH]c2=O)cc1)Nc1ccccc1Cl [Compound L13d, N'-(2-chlorophenyl)-4-(2,4-dihydroxypyrimidine-5-sulfonamido)phenylurea] | 2.39 µM | 6.56 ± 0.15 µM | 2.36 µM | 167 to 169 °C | > 10 µM | 4.22 µM | 2010 ± 140 nM | 4.13 ± 0.16 µM | 1.73 ± 0.44 µM | 5.3 ± 0.28 µM
O=C(Nc1ccc(NS(=O)(=O)c2c[nH]c(=O)[nH]c2=O)cc1)Nc1cccc(Cl)c1 [Compound L13e, N'-(3-chlorophenyl)-4-(2,4-dihydroxypyrimidine-5-sulfonamido)phenylurea] | 3.64 µM | 2.81 ± 0.16 µM | 4.55 µM | 169 to 171 °C | 2.48 ± 1.46 µM | 4.41 µM | 950 ± 50 nM | 2.46 ± 0.06 µM | 1.05 ± 0.42 µM | 3.38 ± 0.18 µM
O=C(Nc1ccc(Cl)cc1)Nc1ccc(NS(=O)(=O)c2c[nH]c(=O)[nH]c2=O)cc1 [Compound L13f, N'-(4-chlorophenyl)-4-(2,4-dihydroxypyrimidine-5-sulfonamido)phenylurea] | 3.59 µM | 4.35 ± 0.45 µM | 6.3 µM | 175 to 177 °C | 8.89 ± 2.42 µM | 4.65 µM | 990 ± 70 nM | 5.53 ± 0.25 µM | 8.04 ± 0.32 µM | 3.98 ± 0.05 µM
Cc1ccccc1NC(=O)Nc1ccc(NS(=O)(=O)c2c[nH]c(=O)[nH]c2=O)cc1 [Compound L13g, N'-(2-methylphenyl)-4-(2,4-dihydroxypyrimidine-5-sulfonamido)phenyl urea] | > 10 µM | 9.16 ± 0.12 µM | 9.25 µM | 169 to 173 °C | > 10 µM | > 10 µM | 4680 ± 110 nM | 4.75 ± 0.07 µM | 2.68 ± 0.38 µM | 6.39 ± 0.19 µM
Cc1cccc(NC(=O)Nc2ccc(NS(=O)(=O)c3c[nH]c(=O)[nH]c3=O)cc2)c1 [Compound L13h, N'-(3-methylphenyl)-4-(2,4-dihydroxypyrimidine-5-sulfonamido)phenylurea] | 3.53 µM | 5.83 ± 0.18 µM | 4.57 µM | 179 to 182 °C | > 10 µM | 3.99 µM | 1850 ± 130 nM | 5.46 ± 1.21 µM | 9.56 ± 0.94 µM | 6.35 ± 0.52 µM
Cc1ccc(NC(=O)Nc2ccc(NS(=O)(=O)c3c[nH]c(=O)[nH]c3=O)cc2)cc1 [Compound L13i, N'-(4-methylphenyl)-4-(2,4-dihydroxypyrimidine-5-sulfonamido) phenyl urea] | 4.91 µM | 8.25 ± 0.25 µM | 7.39 µM | 181 to 183 °C | > 10 µM | 5.48 µM | 3480 ± 130 nM | 7.98 ± 0.61 µM | > 10 µM | 4.92 ± 0.23 µM
O=C(Nc1ccccc1Cl)Nc1ccccc1NS(=O)(=O)c1c[nH]c(=O)[nH]c1=O [Compound L14d, N'-(2-chlorophenyl)-2-(2,4-dihydroxypyrimidine-5-sulfonamido)phenyl urea] | 1.62 µM | 2.2 ± 0.06 µM | 1.91 µM | 151 to 153 °C | 6.71 ± 0.18 µM | 2.39 µM | 3290 ± 300 nM | 4.96 ± 0.63 µM | 7.27 ± 1.23 µM | 5.22 ± 0.18 µM
O=C(Nc1ccc(Cl)cc1)Nc1ccccc1NS(=O)(=O)c1c[nH]c(=O)[nH]c1=O [Compound L14f, N'-(4-chlorophenyl)-2-(2,4-dihydroxypyrimidine-5-sulfonamido)phenyl urea] | 1.71 µM | 1.62 ± 0.1 µM | 2.12 µM | 160 to 163 °C | 4.54 ± 0.41 µM | 2.23 µM | 1380 ± 270 nM | 4.22 ± 0.31 µM | 6.52 ± 0.5 µM | 3.98 ± 0.33 µM
Cc1ccccc1NC(=O)Nc1ccccc1NS(=O)(=O)c1c[nH]c(=O)[nH]c1=O [Compound L14g, N'-(2-methylphenyl)-2-(2,4-dihydroxypyrimidine-5-sulfonamido)phenyl urea] | 7.41 µM | 5.59 ± 0.64 µM | 6.47 µM | 151 to 154 °C | > 10 µM | > 10 µM | 2090 ± 720 nM | 4.82 ± 0.19 µM | > 10 µM | 5.4 ± 0.09 µM
Cc1cccc(NC(=O)Nc2ccccc2NS(=O)(=O)c2c[nH]c(=O)[nH]c2=O)c1 [Compound L14h, N'-(3-methylphenyl)-2-(2,4-dihydroxypyrimidine-5-sulfonamido)phenylurea] | 3.61 µM | > 10 µM | 3.52 µM | 155 to 158 °C | 7.16 ± 0.9 µM | 4.28 µM | 1450 ± 60 nM | 5.39 ± 0.41 µM | 7.3 ± 0.68 µM | 3.3 ± 0.15 µM
Cc1ccc(NC(=O)Nc2ccccc2NS(=O)(=O)c2c[nH]c(=O)[nH]c2=O)cc1 [Compound L14i, N'-(4-methylphenyl)-2-(2,4-dihydroxypyrimidine-5-sulfonamido)phenylurea] | 5.45 µM | 5.72 ± 0.21 µM | 6.98 µM | 165 to 169 °C | 7.3 ± 0.1 µM | > 10 µM | 1370 ± 450 nM | 5.62 ± 0.61 µM | > 10 µM | 5.13 ± 0.44 µM
O=C(Nc1cccc(NS(=O)(=O)c2c[nH]c(=O)[nH]c2=O)c1)Nc1ccccc1Cl [Compound L15d, N'-(2-chlorophenyl)-3-(2,4-dihydroxypyrimidine-5-sulfonamido)phenylurea] | 4.09 µM | 4.97 ± 0.36 µM | 3.81 µM | 159 to 162 °C | 2.04 ± 0.29 µM | 7.65 µM | 1870 ± 120 nM | 2.65 ± 0.33 µM | 6.3 ± 0.25 µM | 5.25 ± 0.81 µM
O=C(Nc1cccc(Cl)c1)Nc1cccc(NS(=O)(=O)c2c[nH]c(=O)[nH]c2=O)c1 [Compound L15e, N'-(3-chlorophenyl)-3-(2,4-dihydroxypyrimidine-5-sulfonamido)phenylurea] | 2.96 µM | 2.29 ± 0.29 µM | 2.17 µM | 162 to 166 °C | 3.13 ± 0.09 µM | 4.37 µM | 870 ± 280 nM | 3.3 ± 0.07 µM | 1.19 ± 0.49 µM | 2.58 ± 0.43 µM
O=C(Nc1ccc(Cl)cc1)Nc1cccc(NS(=O)(=O)c2c[nH]c(=O)[nH]c2=O)c1 [Compound L15f, N'-(4-chlorophenyl)-3-(2,4-dihydroxypyrimidine-5-sulfonamido)phenylurea] | 2.68 µM | 3.07 ± 0.29 µM | 1.55 µM | 169 to 171 °C | 3.2 ± 0.62 µM | 5.54 µM | 1010 ± 110 nM | 7.61 ± 0.04 µM | 1.49 ± 0.28 µM | 4.28 ± 0.67 µM
CNC(=O)c1cc(Oc2ccc(NC(=O)Nc3ccc(Cl)c(C(F)(F)F)c3)cc2)ccn1 [Sorafenib, reference compound] |  | 8.21 ± 0.34 µM |  |  | > 10 µM |  | > 10000 nM | > 10 µM | > 10 µM | > 10 µM
